Among the data in patent US6372747B1, “Farnesyl protein transferase inhibitors” (Schering Corporation, priority 1998, dated 2002) are IC50 and melting point values, retold here.

Usually IC50 stands for the concentration that gives 50% inhibition. What is called melting point is the temperature, or range, at which the solid turns liquid.

The first data set deals with Human tumor cells. As to the kind of experiment: Soft Agar Assay (anchorage-independent growth). The format is cell-based. The following applies: Homo sapiens, range stated for the group unless single. The procedure:
Anchorage-independent growth is a characteristic of tumorigenic cell lines. Human tumor cells can be suspended in growth medium containing 0.3% agarose and an indicated concentration of a farnesyl transferase inhibitor. The solution can be overlayed onto growth medium solidified with 0.6% agarose containing the same concentration of farnesyl transferase inhibitor as the top layer. After the top layer is solidified, plates can be incubated for 10-16 days at 37° C. under 5% CO2 to allow colony outgrowth. After incubation, the colonies can be stained by overlaying the agar with a solution of MTT (3-[4,5-dimethyl-thiazol-2-yl]-2,5-diphenyltetrazolium bromide, Thiazolyl blue) (1 mg/mL in PBS). Colonies can be counted and the IC50's can be determined.
In the case of `CCOC(=O)N1CCC([C@H]2c3ccc(Cl)cc3CCc3cc(Br)cnc32)CC1C(=O)N(CCCn1ccnc1)Cc1ccccc1` (single isomer, unassigned) [80 (Isomer A)], the IC50 was in the range of 2 to 300 nM.

As for `O=C(C1CC([C@H]2c3ccc(Cl)cc3CCc3cc(Br)cnc32)CCN1C(=O)NC1CCCCC1)N(CCCn1ccnc1)Cc1ccccc1` (single isomer, unassigned) [Example 79 Step B (Isomer A)], the concentration for half-maximal inhibition (IC50) fell in the range of 2 to 300 nM.

In turn, `Cc1cn(CCCN(Cc2ccccc2O)C(=O)[C@H]2CN([C@H]3c4ccc(Cl)cc4CCc4cccnc43)CCN2C(=O)OC2CCCCC2)cn1` (single isomer, unassigned) [Example 316] displayed a concentration for half-maximal inhibition (IC50) of 2 to 10 nM.

Compound `Cc1cn(CCCN(Cc2ccccc2)C(=O)[C@@H]2CN([C@H]3c4ccc(Cl)cc4CCc4cccnc43)CCN2C(=O)OC2CCCCC2)cn1` (single isomer, unassigned) [Example 321] displayed an IC50 of 2 to 10 nM.

The compound `Cc1cn(CCCN(Cc2ccccc2Cl)C(=O)[C@H]2CN([C@H]3c4ccc(Cl)cc4CCc4cccnc43)CCN2C(=O)OC2CCCCC2)cn1` (single isomer, unassigned) [Example 324] yielded an IC50 of 2 to 10 nM.

Regarding `Cc1cncn1CCCN(Cc1ccccc1)C(=O)[C@H]1CN([C@H]2c3ccc(Cl)cc3CCc3cccnc32)CCN1C(=O)OC1CCCCC1` (single isomer, unassigned) [Example 325], the IC50 was in the range of 2 to 10 nM.

Tested on in another data set: not given
Assay: not given
Conditions: not given
Regarding `O=C(NCCC(c1ccc(Cl)cc1)n1ccnc1)[C@H]1CN(C2c3ccc(Cl)cc3CCc3cc(Br)cnc32)CCN1C(=O)NC1CCCCC1` (stereo partly shown) [Example 5], the melting point fell in the range of 138 to 140 °C.

For `CC(C)(CCNC(=O)[C@H]1CN([C@H]2c3ccc(Cl)cc3CCc3cc(Br)cnc32)CCN1C(=O)Cc1cc[n+]([O-])cc1)n1ccnc1` [Example 6], the melting point was 115 to 117 °C.

The compound `CC(C)(CCNC(=O)[C@H]1CN([C@@H]2c3ccc(Cl)cc3CCc3cc(Br)cnc32)CCN1C(=O)CC1CCN(C(N)=O)CC1)n1ccnc1` [Example 9] yielded a melting point of 150 to 153 °C.

Compound `CC(C)(C)NC(=O)N1CCN([C@H]2c3ccc(Cl)cc3CCc3cc(Br)cnc32)C[C@@H]1C(=O)NCCC(C)(C)n1ccnc1` [Example 10] had a melting point of 139 to 142 °C.

Take `CC(C)(C)NC(=O)N1CCN([C@H]2c3ccc(Cl)cc3CCc3cc(Br)cnc32)C[C@@H]1C(=O)NCCC1(n2ccnc2)CC1` [Example 12]: the melting point is 136 to 139 °C.

Compound `CC(C)(C)NC(=O)N1CCN([C@@H]2c3ccc(Cl)cc3CCc3cc(Br)cnc32)C[C@@H]1C(=O)NCCC1(n2ccnc2)CC1` [Example 13] displayed a melting point of 106 to 110 °C.

`CC(C)NC(=O)N1CCN(C2c3ccc(Cl)cc3CCc3cc(Br)cnc32)CC1C(=O)NCCC1(n2ccnc2)CC1` (stereo not shown) [Example 14]: the melting point was 133 to 139 °C.

Turning to `CN(C)C(=O)N1CCN(C2c3ccc(Cl)cc3CCc3cc(Br)cnc32)CC1C(=O)NCCC(C)(C)n1ccnc1` (stereo not shown) [Example 18], the melting point was 139 to 142 °C.

As to `CC(CCNC(=O)[C@H]1CN(C2c3ccc(Cl)cc3CCc3cc(Br)cnc32)CCN1C(=O)NC1CCCCC1)n1ccnc1` (stereo partly shown) [Example 19], the melting point was 133 to 138 °C.

The compound `CC(C)(CNC(=O)[C@H]1CN(C2c3ccc(Cl)cc3CCc3cc(Br)cnc32)CCN1C(=O)NC1CCCCC1)c1cnc[nH]1` (stereo partly shown) [Example 21] gave a melting point of 150 to 154 °C.

In turn, `O=C(NCC1(c2cnc[nH]2)CC1)[C@H]1CN(C2c3ccc(Cl)cc3CCc3cc(Br)cnc32)CCN1C(=O)NC1CCCCC1` (stereo partly shown) [Example 22] registered a melting point of 156 to 158 °C.

For the compound `NC(=O)[C@H](Cc1cn(C(=O)NC2CCCCC2)cn1)NC(=O)[C@H]1CN(C2c3ccc(Cl)cc3CCc3cc(Br)cnc32)CCN1C(=O)NC1CCCCC1` (stereo partly shown) [Example 24], the melting point lay in the range of 164 to 167 °C.

As to `Cn1cncc1CCNC(=O)[C@H]1CN(C2c3ccc(Cl)cc3CCc3cc(Br)cnc32)CCN1C(=O)OCc1ccccc1` (stereo partly shown) [Example 26], the melting point lay in the range of 111.8 to 114.5 °C.

For the compound `CCn1cncc1CCNC(=O)[C@H]1CN(C2c3ccc(Cl)cc3CCc3cc(Br)cnc32)CCN1C(=O)OC(C)(C)C` (stereo partly shown) [Example 40], the melting point lay in the range of 54 to 58 °C.

In turn, `CCCn1cncc1CCNC(=O)C1CN(C2c3ccc(Cl)cc3CCc3cc(Br)cnc32)CCN1C(=O)OC(C)(C)C` (stereo not shown) [Example 41] returned a melting point of 116 to 123 °C.

`CC(C)n1cncc1CCNC(=O)[C@H]1CN(C2c3ccc(Cl)cc3CCc3cc(Br)cnc32)CCN1C(=O)OC(C)(C)C` (stereo partly shown) [Example 42] came in with a melting point of 98 to 101 °C.

`CC(C)Cn1cncc1CCNC(=O)[C@H]1CN(C2c3ccc(Cl)cc3CCc3cc(Br)cnc32)CCN1C(=O)OC(C)(C)C` (stereo partly shown) [Example 43] showed a melting point of 120 to 122 °C.

On to `CC(C)(C)OC(=O)N1CCN(C2c3ccc(Cl)cc3CCc3cc(Br)cnc32)C[C@@H]1C(=O)NCCc1cncn1CCc1ccccc1` (stereo partly shown) [Example 44], for which the melting point lay in the range of 101 to 103 °C.

As for `CN(CCCn1ccnc1)C(=O)[C@H]1CN(C2c3ccc(Cl)cc3CCc3cc(Br)cnc32)CCN1C(=O)NC1CCCCC1` (stereo partly shown) [Example 110], the melting point worked out at 118.4 °C.

The compound `CCN(CCCn1ccnc1)C(=O)[C@H]1CN(C2c3ccc(Cl)cc3CCc3cc(Br)cnc32)CCN1C(=O)NC1CCCCC1` (stereo partly shown) [Example 111] gave a melting point of 79.3 °C.

For `CCCN(CCCn1ccnc1)C(=O)[C@H]1CN(C2c3ccc(Cl)cc3CCc3cc(Br)cnc32)CCN1C(=O)NC1CCCCC1` (stereo partly shown) [Example 112], the melting point fell in the range of 63.8 to 67.4 °C.

`O=C(NCCn1nc2ccccc2n1)[C@H]1CN(C2c3ccc(Cl)cc3CCc3cc(Br)cnc32)CCN1C(=O)NC1CCCCC1` (stereo partly shown) [Example 291] came in with a melting point of 132 to 135 °C.

For the compound `O=C(NCCn1nnc2ccccc21)[C@H]1CN(C2c3ccc(Cl)cc3CCc3cc(Br)cnc32)CCN1C(=O)NC1CCCCC1` (stereo partly shown) [Example 292], the melting point is 127 to 132 °C.

With `O=C(NCCc1cnc(C(F)(F)F)[nH]1)[C@H]1CN(C2c3ccc(Cl)cc3CCc3cc(Br)cnc32)CCN1C(=O)NC1CCCCC1` (stereo partly shown) [Example 294], the melting point came to 173.8 °C.

Compound `O=C(NCCCn1ccnc1CO)[C@H]1CN(C2c3ccc(Cl)cc3CCc3cc(Br)cnc32)CCN1C(=O)NC1CCCCC1` (stereo partly shown) [Example 296] showed a melting point of 141.2 °C.

Compound `O=C(NCCc1cnc(O)[nH]1)[C@H]1CN(C2c3ccc(Cl)cc3CCc3cc(Br)cnc32)CCN1C(=O)NC1CCCCC1` (stereo partly shown) [Example 297] had a melting point of 182.1 to 219.4 °C.

With `CCn1cncc1CCN(CC1CC1)C(=O)[C@H]1CN(C2c3ccc(Cl)cc3CCc3cc(Br)cnc32)CCN1C(=O)OC(C)(C)C` (stereo partly shown) [Example 304], the melting point lay in the range of 103.7 to 107.5 °C.

Regarding `Cn1cncc1CCN(CC1CC1)C(=O)[C@H]1CN([C@H]2c3ccc(Cl)cc3CCc3cccnc32)CCN1C(=O)OC(C)(C)C` [Example 306], the melting point lay in the range of 100 to 114 °C.

As for `CCn1cncc1CCN(CC1CC1)C(=O)[C@H]1CN([C@H]2c3ccc(Cl)cc3CCc3cccnc32)CCN1C(=O)OC(C)(C)C` [Example 307], the melting point was in the range of 89.1 to 96.5 °C.

As to `CCn1cncc1CCN(CC1CC1)C(=O)[C@H]1CN([C@@H]2c3ccc(Cl)cc3CCc3cccnc32)CCN1C(=O)OC(C)(C)C` [Example 308], the melting point was in the range of 89.1 to 96.5 °C.

For `Cc1cn(CCCN(Cc2ccccc2)C(=O)[C@H]2CN(C3c4ccccc4CCc4cc(Cl)cnc43)CCN2C(=O)OC2CCCCC2)cn1` (stereo partly shown) [Example 395], the melting point lay in the range of 91 to 107 °C.
